Measurements taken from ChEMBL document CHEMBL1130942, “A combinatorial approach to chemical modification of subtilisin Bacillus lentus” (Bioorg Med Chem Lett, 1998).

Assays:
Format in all cases: ADME
[1] = Compound was tested for esterase rate in the presence of S166C screen enzyme
[2] = Compound was tested for esterase rate in the presence of N62C fully characterised enzyme
[3] = Compound was tested for amidase rate in the presence of S166C fully characterised enzyme
[4] = Compound was tested for amidase rate in the presence of S166C screen enzyme
[5] = Compound was tested for amidase rate in the presence of N62C screen enzyme
[6] = Compound was tested for amidase rate in the presence of N62C fully characterised enzyme
[7] = Compound was tested for esterase rate in the presence of N62C screen enzyme
[8] = Compound was tested for esterase rate in the presence of S166C fully characterised enzyme

Compound | k cat/Km [1] | k cat/Km [2] | k cat/Km [3] | k cat/Km [4] | k cat/Km [5] | k cat/Km [6] | k cat/Km [7] | k cat/Km [8]
CS(=O)(=O)SCc1ccc(C(=O)O)cc1 | 2.37e+06 M⁻¹ s⁻¹ | 5.07e+07 M⁻¹ s⁻¹ | 72000 M⁻¹ s⁻¹ | 16000 M⁻¹ s⁻¹ | 74000 M⁻¹ s⁻¹ | 442000 M⁻¹ s⁻¹ | 7.68e+06 M⁻¹ s⁻¹ | 1.146e+07 M⁻¹ s⁻¹
COc1ccc(CSS(C)(=O)=O)cc1 | 1.746e+06 M⁻¹ s⁻¹ | 7.87e+06 M⁻¹ s⁻¹ | 68000 M⁻¹ s⁻¹ | 17000 M⁻¹ s⁻¹ | 86000 M⁻¹ s⁻¹ | 93000 M⁻¹ s⁻¹ | 5.68e+06 M⁻¹ s⁻¹ | 5.798e+06 M⁻¹ s⁻¹
CS(=O)(=O)SCc1ccccc1 | 1.16e+06 M⁻¹ s⁻¹ | 6.33e+06 M⁻¹ s⁻¹ | 20000 M⁻¹ s⁻¹ | 10000 M⁻¹ s⁻¹ | 207000 M⁻¹ s⁻¹ | 379000 M⁻¹ s⁻¹ | 6.51e+06 M⁻¹ s⁻¹ | 4.92e+06 M⁻¹ s⁻¹
CS(=O)(=O)SCc1c(F)c(F)c(F)c(F)c1F [METHANETHIOSULFONIC ACID PENTAFLUOROPHENYLMETHYL ESTER] | 784000 M⁻¹ s⁻¹ | 1.426e+07 M⁻¹ s⁻¹ | 67000 M⁻¹ s⁻¹ | 14000 M⁻¹ s⁻¹ | 111000 M⁻¹ s⁻¹ | 198000 M⁻¹ s⁻¹ | 7.52e+06 M⁻¹ s⁻¹ | 5.198e+06 M⁻¹ s⁻¹
